Assay results taken from patent US20110183969A1, “ANTIFUNGAL COMBINATION THERAPY” (priority 2008, published 2011).
In brackets after ≈: the same amount, converted by molar mass.

What was measured:
Assay in all cases: MIC (YAG medium)
Type in all cases: cell-based
Aspergillus flavus = conditions: YAG medium, MIC banded into grades; for MIC: Aspergillus flavus, read-out: MIC A. flavus (grade)
Experimental: (§1) Between 1 and 5 mgs of compound were accurately weighed out into a sterile Eppendorf tube. The compound was dissolved in DMSO to give a solution containing 5 mg/mL. Tubes were stored at −20° C. until required.
(§2) On the day of testing thawed solutions were vortex mixed to ensure homogeneity. 30 μL of solution was removed and added to 570 μL of sterile water in a separate sterile Eppendorf The thoroughly mixed solution was used to prepare a series of doubling dilutions in water, in a deep well plate. […] replicate plates were prepared using a Minitrak by aspirating 20 μL from each well into eleven clear polystyrene 96 well plates.
(§3) Spores of Aspergillus spp. (Aspergillus fumigatus [two strains], Aspergillus terreus [two strains], Aspergillus niger and Aspergillus flavus) were harvested from cultures grown on Sabarauds agar for 5 days, and resuspended in PBS/Tween 80 to approx 1×10^7 cfu/mL. Other filamentous fungi (Absidia corymbifera, Fusarium solani, Rhizomucor, Scedosporium spp., Trichophyton spp.), were grown on Sabarauds agar for 2-10 days and spores/hyphae resuspended in PBS/Tween to give approx 1×10^7 cfu/mL. Candida species (Candida albicans, Candida glabrata, Candida krusei, Candida parapsilosis and Candida tropicalis) were grown on Sabarauds agar, cells were harvested from the agar using a sterile loop and resuspended in PBS/Tween 80 to approx 1×10^6 cfu/mL. Each organism suspension was diluted in RPMI medium, containing 2% glucose and 0.135 M MOPS buffer (pH 7.0) to 0.5−2×10^4 cfu/mL for Aspergillus spp. and other filamentous fungi and 0.5-2×10^3 cfu/mL for yeast. 80 μL of an organism suspension was added to each well of the plate containing drug dilutions.
(§4) This produced MIC plates with a drug range 50-0.05 mg/L and organism inocula of 1-2×10^4 cfu/mL for Aspergillus spp. and other filamentous fungi and 1-2×10^3 cfu/mL for yeasts. All plates were incubated for 24-48 hrs at 35° C. Growth was assessed by monitoring the optical density at 485 nm for each well. The MIC of a compound is the lowest drug concentration that inhibits growth of an organism by >80% compared with a drug free control. MICs are recorded as mg/L. Other growth media can be used for susceptibility testing, and the activity of the described compounds can also be assessed in a medium comprising 1% glucose, 1% ammonium chloride and 0.5% yeast extract (YAG medium). To perform MIC tests in this medium, dilutions of compounds are prepared in microtitre plates as described above. Fungal strains to be tested are grown and harvested in an identical manner to that described above, each organism suspension is then diluted in YAG medium to 0.5-2×10^4 cfu/mL for Aspergillus spp. and other filamentous fungi and 0.5-2×10^3 cfu/mL for yeast. 80 μL of an organism suspension was added to each well of the plate containing drug dilutions. This produced MIC plates with a drug range 50-0.05 mg/L and organism inocula of 1-2×10^4 cfu/mL for Aspergillus spp. and other filamentous fungi and 1-2×10^3 cfu/mL for yeasts. All plates were incubated for 24 hrs at 35° C. Growth was assessed by monitoring the optical density at 485 nm for each well. The MIC of a compound is the lowest drug concentration that inhibits growth of an organism by >70% compared with a drug free control. MICs are recorded as mg/L. In cases where the MIC of an organism is […] mg/L the MIC is repeated using a concentration range of 0.5-0.0005 mg/L. MIC tests in YAG medium have more clear-cut endpoints and have slightly lower MICs than those performed in RPMI medium.
(§5) The following organisms were tested: Absidia corymbifera, Aspergillus flavus, Aspergillus fumigatus AF293 and AF210, Aspergillus niger, Aspergillus terreus AT4 and AT49, Candida albicans, Candida glabrata, Candida krusei, Candida parapsilosis, Candida tropicalis, Fusarium solani, Rhizomucor sp., Scedosporium apiospermum, Scedosporium prolificans, Trichophyton mentagrophytes, and Trichophyton rubrum.

Aspergillus terreus AT49 = conditions: YAG medium, MIC banded into grades, AT49; for MIC: Aspergillus terreus, read-out: MIC A. terreus 49 (grade)
Experimental: as §1, §2, §3, §4, §5

[1] = system: Aspergillus fumigatus AF210; conditions: YAG medium, MIC banded into grades, AF210; for MIC: Aspergillus fumigatus, read-out: MIC A. fumigatus 210 (grade)
Experimental: as §1, §2, §3, §4, §5

Aspergillus terreus AT4 = conditions: YAG medium, MIC banded into grades, AT4; for MIC: Aspergillus terreus, read-out: MIC A. terreus (grade)
Experimental: as §1, §2, §3, §4, §5

[2] = system: Aspergillus fumigatus AF293; conditions: YAG medium, MIC banded into grades, AF293; for MIC: Aspergillus fumigatus, read-out: MIC A. fumigatus (grade)
Experimental: as §1, §2, §3, §4, §5

Aspergillus niger = conditions: YAG medium, MIC banded into grades; for MIC: Aspergillus niger, read-out: MIC A. niger (grade)
Experimental: as §1, §2, §3, §4, §5

| MIC (Aspergillus flavus) | MIC (Aspergillus terreus AT49) | MIC [1] | MIC (Aspergillus terreus AT4) | MIC [2] | MIC (Aspergillus niger) | SMILES | MIC A. flavus (grade) (Aspergillus flavus) | MIC A. terreus 49 (grade) (Aspergillus terreus AT49) | MIC A. fumigatus 210 (grade) [1] | MIC A. terreus (grade) (Aspergillus terreus AT4) | MIC A. fumigatus (grade) [2] | MIC A. niger (grade) (Aspergillus niger) |
| --- | --- | --- | --- | --- | --- | --- | --- | --- | --- | --- | --- | --- |
| > 10 µg/mL | > 10 µg/mL | > 10 µg/mL | > 10 µg/mL | > 10 µg/mL | > 10 µg/mL | Cc1cc(C)nc(N2CCN(c3ccc(NC(=O)C(=O)c4c(C5CCN(C)CC5)cc5ccccn45)cc3)CC2)c1 [Example 63, N-{4-[4-(4,6-Dimethyl-pyridin-2-yl)-piperazin-1-yl]-phenyl}-2-[2-(1-methyl-piperidin-4-yl)-indolizin-3-yl]-2-oxo-acetamide] |  |  |  |  |  |  |
| < 1 µg/mL | < 1 µg/mL | < 1 µg/mL | < 1 µg/mL | < 1 µg/mL | < 1 µg/mL | Cc1cc(C)nc(CCCCc2ccc(NC(=O)C(=O)c3c(-c4ccccc4)cc4ccccn34)cc2)c1 [Example 72, N-{4-[4-(4,6-Dimethyl-pyridin-2-yl)-butyl]-phenyl}-2-oxo-2-(2-phenyl-indolizin-3-yl)-acetamide] |  |  |  |  |  |  |
| < 1 µg/mL | < 1 µg/mL | < 1 µg/mL | < 1 µg/mL | < 1 µg/mL | < 1 µg/mL | Cc1cc(C)nc(N2CCN(c3ccc(NC(=O)C(=O)c4c(-c5ccccc5)cc5ccccn45)cc3)CC2)n1 [Example 44, N-{4-[4-(4,6-Dimethyl-pyrimidin-2-yl)-piperazin-1-yl]-phenyl}-2-oxo-2-(2-phenyl-indolizin-3-yl)-acetamide] |  |  |  |  |  |  |
| < 1 µg/mL | 1 to 10 µg/mL (≈ 1.74 to 17.4 µM) | 1 to 10 µg/mL (≈ 1.74 to 17.4 µM) | 1 to 10 µg/mL (≈ 1.74 to 17.4 µM) | < 1 µg/mL | 1 to 10 µg/mL (≈ 1.74 to 17.4 µM) | Cc1cc(C)nc(N2CCN(c3ccc(NC(=O)C(=O)c4c(-c5ccccc5)cc5ccccn45)cc3C(=O)O)CC2)c1 [Example 84, 2-[4-(4,6-Dimethyl-pyridin-2-yl)-piperazin-1-yl]-5-[2-oxo-2-(2-phenyl-indolizin-3-yl)-acetylamino]-benzoic acid] |  |  |  |  |  |  |
| > 10 µg/mL | > 10 µg/mL | > 10 µg/mL | 1 to 10 µg/mL (≈ 1.96 to 19.6 µM) | > 10 µg/mL | > 10 µg/mL | Cc1cc(C)nc(N2CCN(c3ccc(NC(=O)C(=O)c4c(C(C)(C)C)cc5ccccn45)cc3)CC2)c1 [Example 62, 2-(2-tert-Butyl-indolizin-3-yl)-N-{4-[4-(4,6-dimethyl-pyridin-2-yl)-piperazin-1-yl]-phenyl}-2-oxo-acetamide] |  |  |  |  |  |  |
| < 1 µg/mL | < 1 µg/mL | < 1 µg/mL | < 1 µg/mL | < 1 µg/mL | < 1 µg/mL | O=C(Nc1ccc(N2CCN(c3cccc(CCO)n3)CC2)cc1)C(=O)c1c(-c2ccccc2)cc2ccccn12 [Example 88, N-(4-{4-[6-(2-hydroxy-ethyl)-pyridin-2-yl]-piperazin-1-yl}-phenyl)-2-oxo-2-(2-phenyl-indolizin-3-yl)-acetamide] |  |  |  |  |  |  |
| < 1 µg/mL | < 1 µg/mL | 1 to 10 µg/mL (≈ 1.78 to 17.8 µM) | 1 to 10 µg/mL (≈ 1.78 to 17.8 µM) | 1 to 10 µg/mL (≈ 1.78 to 17.8 µM) | 1 to 10 µg/mL (≈ 1.78 to 17.8 µM) | O=C(Nc1ccc(N2CCN(c3cc(OCCO)ccn3)CC2)cc1)C(=O)c1c(-c2ccccc2)cc2ccccn12 [Example 89, N-(4-{4-[4-(2-Hydroxy-ethoxy)-pyridin-2-yl]-piperazin-1-yl}-phenyl)-2-oxo-2-(2-phenyl-indolizin-3-yl)-acetamide] |  |  |  |  |  |  |
| > 10 µg/mL | 1 to 10 µg/mL (≈ 1.98 to 19.8 µM) | > 10 µg/mL | 1 to 10 µg/mL (≈ 1.98 to 19.8 µM) | > 10 µg/mL | 1 to 10 µg/mL (≈ 1.98 to 19.8 µM) | CC(C)c1ncc(C(C)(C)c2ccc(NC(=O)C(=O)c3c(-c4ccccc4)cc4ccccn34)cc2)n1C [Example 17, N-{4-[1-(2-Isopropyl-3-methyl-3H-imidazol-4-yl)-1-methyl-ethyl]-phenyl}-2-oxo-2-(2-phenyl-indolizin-3-yl)-acetamide] |  |  |  |  |  |  |
| 1 to 10 µg/mL (≈ 2.11 to 21.1 µM) | > 10 µg/mL | > 10 µg/mL | 1 to 10 µg/mL (≈ 2.11 to 21.1 µM) | > 10 µg/mL | > 10 µg/mL | O=C(Nc1ccc(N2CCS(=O)(=O)CC2)cc1)C(=O)c1c(-c2ccccc2)cc2ccccn12 [Example 1, N-[4-(1,1-Dioxo-1λ^6-thiomorpholin-4-yl)-phenyl]-2-oxo-2-(2-phenyl-indolizin-3-yl)-acetamide] |  |  |  |  |  |  |
| < 1 µg/mL | < 1 µg/mL | 1 to 10 µg/mL (≈ 1.98 to 19.8 µM) | < 1 µg/mL | 1 to 10 µg/mL (≈ 1.98 to 19.8 µM) | 1 to 10 µg/mL (≈ 1.98 to 19.8 µM) | CC(C)c1nc(C(C)(C)c2ccc(NC(=O)C(=O)c3c(-c4ccccc4)cc4ccccn34)cc2)cn1C [Example 16, N-{4-[1-(2-isopropyl-1-methyl-1H-imidazol-4-yl)-1-methyl-ethyl]-phenyl}-2-oxo-2-(2-phenyl-indolizin-3-yl)-acetamide] |  |  |  |  |  |  |
|  |  |  |  |  |  | Cc1ccccc1-c1cc2ccccn2c1C(=O)C(=O)Nc1ccc(N2CCN(Cc3ccco3)CC2)cn1 [Example 35, N-[5-(2-Furan-2-yl-methyl-piperazin-yl)-peridin-2-yl]-2-oxo-2-(2-o-tolyl-indolizin-3-yl)-acetamide] | 3 (A grade of 3 represents an MIC of less than 1 mg/L) | 3 (A grade of 3 represents an MIC of less than 1 mg/L) | 3 (A grade of 3 represents an MIC of less than 1 mg/L) | 3 (A grade of 3 represents an MIC of less than 1 mg/L) | 3 (A grade of 3 represents an MIC of less than 1 mg/L) | 3 (A grade of 3 represents an MIC of less than 1 mg/L) |
|  |  |  |  |  |  | O=C(Nc1ccc(N2CCN(Cc3ccco3)CC2)cc1)C(=O)c1c(-c2ccccc2)cc2ccccn12 [Example 31, 4-[4-(2-Furan-2-yl-methyl-piperazin-yl)-phenyl]-2-oxo-2-(2-phenyl-indolizin-3-yl)-acetamide] | 3 (A grade of 3 represents an MIC of less than 1 mg/L) | 3 (A grade of 3 represents an MIC of less than 1 mg/L) | 3 (A grade of 3 represents an MIC of less than 1 mg/L) | 3 (A grade of 3 represents an MIC of less than 1 mg/L) | 3 (A grade of 3 represents an MIC of less than 1 mg/L) | 3 (A grade of 3 represents an MIC of less than 1 mg/L) |
| < 1 µg/mL | 1 to 10 µg/mL (≈ 1.92 to 19.2 µM) | 1 to 10 µg/mL (≈ 1.92 to 19.2 µM) | 1 to 10 µg/mL (≈ 1.92 to 19.2 µM) | 1 to 10 µg/mL (≈ 1.92 to 19.2 µM) | > 10 µg/mL | Cc1cc(NC(=O)C(=O)c2c(-c3ccccc3)cc3ccccn23)ccc1OCCCn1ccnc1C(C)C [Example 12, N-{4-[3-(2-Isopropyl-imidazol-1-yl)-propoxy]-3-methyl-phenyl}-2-oxo-2-(2-phenyl-indolizin-3-yl)-acetamide] |  |  |  |  |  |  |
| > 10 µg/mL | > 10 µg/mL | > 10 µg/mL | > 10 µg/mL | > 10 µg/mL | > 10 µg/mL | Cc1cc(N2CCN(c3ccc(NC(=O)C(=O)c4c(-c5ccccc5)cc5ccccn45)cc3)CC2)cc(C)n1 [Example 52, N-{4-[4-(2,6-Dimethyl-pyridin-4-yl)-piperazin-1-yl]-phenyl}-2-oxo-2-(2-phenyl-indolizin-3-yl)-acetamide] |  |  |  |  |  |  |
